# Columns and labels:
# Rho kinase 1 (ROCK1) = Rho kinase 1 (ROCK1) (Homo sapiens, UniProt Q13464); test: In vitro Rho kinase inhibitory activity assay (ADP-Glo), ROCK1; format: biochemical; details: Ki by Cheng-Prusoff from IC50; 10 μM ATP; range of activity
# Method: (§1) The effectiveness of compounds of the invention to inhibit Rho kinase activity can be determined in a […] assay containing 40 mM Tris pH7.5, 20 mM MgC2 0.1 mg/ml BSA, 50 μM DTT and 2.5 μM peptide substrate (Myelin Basic Protein) using an ADP-Glo kit (Promega). Compounds were dissolved in DMSO such that the final concentration of DMSO was 1% in the assay. All reactions/incubations are performed at 25° C. Compound (2 ul) and either Rho kinase 1 or 2 (4 μl) were mixed and incubated for 30 mins. Reactions were initiated by addition of ATP (4 μl) such that the final concentration of ATP in the assay was 10 μM. After a 1 hour incubation 10 μl of ADP-Glo Reagent was added and after a further 45 minute incubation 20 ul of Kinase Detection Buffer was added and the mixture incubated for a further 30 minutes. The luminescent signal was measured on a luminometer. […] Compounds were tested in dose-response format and the inhibition of kinase activity was calculated at each concentration of compound. To determine the IC50 (concentration of compound required to inhibit 50% of the enzyme activity) data were fit to a plot of % inhibition vs Log10 compound concentration using a sigmoidal fit with a variable slope and fixing the maximum to 100% and the minimum to 0%. To determine the Ki values the Cheng-Prusoff equation was utilized (Ki=IC50/(1+[S]/Km)
# Rho kinase 2 (ROCK2) = Rho kinase 2 (ROCK2) (Homo sapiens, UniProt O75116); test: In vitro Rho kinase inhibitory activity assay (ADP-Glo), ROCK2; format: biochemical; details: Ki by Cheng-Prusoff from IC50; 10 μM ATP; range of activity
# Method: as §1
# Chain of Rho kinase 1 (ROCK1) (Q13464 whole entry): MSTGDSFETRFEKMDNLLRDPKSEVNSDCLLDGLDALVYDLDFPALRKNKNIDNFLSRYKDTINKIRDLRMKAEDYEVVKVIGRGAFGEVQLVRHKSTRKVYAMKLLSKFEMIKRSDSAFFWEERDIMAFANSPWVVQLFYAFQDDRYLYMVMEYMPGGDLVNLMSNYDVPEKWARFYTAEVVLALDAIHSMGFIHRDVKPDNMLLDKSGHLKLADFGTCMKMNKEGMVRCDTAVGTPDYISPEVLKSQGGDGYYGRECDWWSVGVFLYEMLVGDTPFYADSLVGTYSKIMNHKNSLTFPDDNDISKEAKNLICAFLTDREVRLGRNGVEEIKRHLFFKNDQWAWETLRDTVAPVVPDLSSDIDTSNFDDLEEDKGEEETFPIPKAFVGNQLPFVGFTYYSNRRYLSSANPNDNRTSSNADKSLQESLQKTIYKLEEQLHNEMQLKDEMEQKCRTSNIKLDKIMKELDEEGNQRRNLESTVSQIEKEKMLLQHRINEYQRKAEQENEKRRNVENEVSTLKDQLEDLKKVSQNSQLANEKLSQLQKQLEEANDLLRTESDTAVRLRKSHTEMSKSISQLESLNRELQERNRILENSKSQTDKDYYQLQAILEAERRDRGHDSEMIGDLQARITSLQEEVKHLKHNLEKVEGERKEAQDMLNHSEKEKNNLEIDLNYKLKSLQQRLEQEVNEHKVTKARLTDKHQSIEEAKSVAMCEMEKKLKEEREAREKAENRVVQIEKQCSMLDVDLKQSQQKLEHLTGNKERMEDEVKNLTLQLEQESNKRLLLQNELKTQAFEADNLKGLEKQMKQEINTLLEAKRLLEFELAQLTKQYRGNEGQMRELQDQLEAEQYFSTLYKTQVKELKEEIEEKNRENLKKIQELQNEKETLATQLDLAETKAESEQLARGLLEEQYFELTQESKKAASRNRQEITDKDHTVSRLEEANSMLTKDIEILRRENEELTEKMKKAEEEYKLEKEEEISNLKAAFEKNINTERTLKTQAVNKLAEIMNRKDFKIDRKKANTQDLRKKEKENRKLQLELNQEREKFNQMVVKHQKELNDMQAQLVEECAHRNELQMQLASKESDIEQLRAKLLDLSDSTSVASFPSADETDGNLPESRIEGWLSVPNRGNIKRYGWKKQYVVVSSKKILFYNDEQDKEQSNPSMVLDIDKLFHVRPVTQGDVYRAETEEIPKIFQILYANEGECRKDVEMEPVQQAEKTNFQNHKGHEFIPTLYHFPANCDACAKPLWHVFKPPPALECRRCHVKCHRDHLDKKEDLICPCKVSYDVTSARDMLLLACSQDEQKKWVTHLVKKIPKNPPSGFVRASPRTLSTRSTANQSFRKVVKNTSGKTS
# Chain of Rho kinase 2 (ROCK2) (O75116 whole entry): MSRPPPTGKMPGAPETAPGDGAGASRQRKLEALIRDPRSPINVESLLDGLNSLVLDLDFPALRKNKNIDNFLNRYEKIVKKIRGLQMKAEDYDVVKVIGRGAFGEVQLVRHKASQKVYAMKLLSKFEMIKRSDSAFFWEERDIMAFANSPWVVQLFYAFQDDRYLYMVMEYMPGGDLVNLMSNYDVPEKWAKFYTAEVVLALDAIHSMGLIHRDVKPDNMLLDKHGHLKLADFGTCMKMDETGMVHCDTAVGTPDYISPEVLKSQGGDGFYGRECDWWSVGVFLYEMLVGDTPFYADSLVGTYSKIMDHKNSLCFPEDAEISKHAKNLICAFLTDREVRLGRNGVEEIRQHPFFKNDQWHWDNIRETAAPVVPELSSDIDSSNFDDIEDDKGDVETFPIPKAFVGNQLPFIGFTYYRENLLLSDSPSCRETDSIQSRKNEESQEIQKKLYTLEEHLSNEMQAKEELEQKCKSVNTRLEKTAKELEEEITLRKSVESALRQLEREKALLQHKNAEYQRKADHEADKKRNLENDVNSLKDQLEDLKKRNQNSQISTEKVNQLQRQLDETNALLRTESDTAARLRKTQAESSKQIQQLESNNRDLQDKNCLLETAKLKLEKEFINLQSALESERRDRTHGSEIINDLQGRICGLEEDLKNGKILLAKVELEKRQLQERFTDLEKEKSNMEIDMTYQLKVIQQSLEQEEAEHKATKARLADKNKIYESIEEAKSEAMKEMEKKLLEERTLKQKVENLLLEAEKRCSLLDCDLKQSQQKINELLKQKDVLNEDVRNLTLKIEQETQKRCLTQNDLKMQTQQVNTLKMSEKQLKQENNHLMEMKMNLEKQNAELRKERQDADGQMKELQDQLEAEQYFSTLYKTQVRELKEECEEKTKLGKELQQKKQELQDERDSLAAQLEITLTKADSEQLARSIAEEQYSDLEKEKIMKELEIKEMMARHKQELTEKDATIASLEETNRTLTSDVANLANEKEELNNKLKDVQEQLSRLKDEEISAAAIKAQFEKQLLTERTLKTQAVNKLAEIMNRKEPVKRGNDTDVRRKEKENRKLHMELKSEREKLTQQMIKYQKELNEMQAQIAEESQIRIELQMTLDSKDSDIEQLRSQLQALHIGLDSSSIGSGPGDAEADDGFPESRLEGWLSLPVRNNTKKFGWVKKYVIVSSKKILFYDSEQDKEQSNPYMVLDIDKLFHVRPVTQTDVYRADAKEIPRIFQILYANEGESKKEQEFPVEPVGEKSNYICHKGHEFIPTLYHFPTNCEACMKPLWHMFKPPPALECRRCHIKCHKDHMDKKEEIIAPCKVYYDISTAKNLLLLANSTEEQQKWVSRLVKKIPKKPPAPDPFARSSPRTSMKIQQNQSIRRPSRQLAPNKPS
Compound,Ki (Rho kinase 1 (ROCK1)),Ki (Rho kinase 2 (ROCK2))
"Cc1c[nH]c2nccc(Oc3ccc4c(c3)CNCC4)c12 [Example 1, 7-((3-Methyl-1H-pyrrolo[2,3-b]pyridin-4-yl)oxy)-1,2,3,4-tetrahydroisoquinoline]",< 5 nM,< 5 nM
"CNCc1ccc(Oc2ccnc3[nH]cc(C)c23)cc1 [Example 3, N-methyl-1-(4-((3-methyl-1H-pyrrolo[2,3-b]pyridin-4-yl)oxy)phenyl)methanamine]",5 to 50 nM,5 to 50 nM
"NCCc1ccc(Oc2ccnc3[nH]ccc23)cc1 [Example 4, 2-(4-((1H-pyrrolo[2,3-b]pyridin-4-yl)oxy)phenyl)ethanamine]",5 to 50 nM,5 to 50 nM
"Cc1c[nH]c2nccc(Oc3ccc4c(c3)CCNCC4)c12 [Example 5, 7-((3-methyl-1H-pyrrolo[2,3-b]pyridin-4-yl)oxy)-2,3,4,5-tetrahydro-1H-benzo[d]azepine]",< 5 nM,< 5 nM
"Cc1c[nH]c2ncnc(Oc3ccc4c(c3)CNCC4)c12 [Example 6, 7-((5-methyl-7H-pyrrolo[2,3-d]pyrimidin-4-yl)oxy)-1,2,3,4-tetrahydroisoquinoline]",5 to 50 nM,5 to 50 nM
"Cc1c[nH]c2ncnc(Oc3ccc(C4CCNC4)cc3)c12 (stereo not drawn) [Example 7, 5-methyl-4-(4-(pyrrolidin-3-yl)phenoxy)-7H-pyrrolo[2,3-d]pyrimidine]",> 50 nM,> 50 nM
"Cc1c[nH]c2ncnc(Oc3ccc(CCN)cc3)c12 [Example 8, 2-(4-((5-methyl-7H-pyrrolo[2,3-d]pyrimidin-4-yl)oxy)phenyl)ethanamine]",> 50 nM,> 50 nM
"Cc1c[nH]c2ncnc(Oc3ccc(CN)cc3)c12 [Example 9, (4-((5-methyl-7H-pyrrolo[2,3-d]pyrimidin-4-yl)oxy)phenyl)methanamine]",> 50 nM,> 50 nM
"Cc1c[nH]c2nccc(Oc3ccc4c(c3)CN(C)CC4)c12 [Example 10, 2-methyl-7-((3-methyl-1H-pyrrolo[2,3-b]pyridin-4-yl)oxy)-1,2,3,4-tetrahydroisoquinoline]",< 5 nM,< 5 nM
"Cc1c[nH]c2nccc(Oc3ccc4c(c3)CCNC4)c12 [Example 11, 6-((3-methyl-1H-pyrrolo[2,3-b]pyridin-4-yl)oxy)-1,2,3,4-tetrahydroisoquinoline]",5 to 50 nM,5 to 50 nM
"Cc1c[nH]c2nccc(Oc3ccc(C4CNCCN4)cc3)c12 (stereo not drawn) [Example 13, 3-methyl-4-(4-(piperazin-2-yl)phenoxy)-1H-pyrrolo[2,3-b]pyridine]",5 to 50 nM,5 to 50 nM
"Cc1c[nH]c2nccc(Oc3ccc4c(c3)CC(N)C4)c12 (stereo not drawn) [Example 14, 5-((3-methyl-1H-pyrrolo[2,3-b]pyridin-4-yl)oxy)-2,3-dihydro-1H-inden-2-amine]",5 to 50 nM,< 5 nM
"Cc1c[nH]c2nccc(Oc3ccc4c(c3)CCCNC4)c12 [Example 15, 7-((3-methyl-1H-pyrrolo[2,3-b]pyridin-4-yl)oxy)-2,3,4,5-tetrahydro-1H-benzo[c]azepine]",5 to 50 nM,5 to 50 nM
"Cc1c[nH]c2nccc(Oc3ccc(CCN4CCCC4)cc3)c12 [Example 22, 3-methyl-4-(4-(2-(pyrrolidin-1-yl)ethyl)phenoxy)-1H-pyrrolo[2,3-b]pyridine]",5 to 50 nM,5 to 50 nM
Cc1c[nH]c2nccc(Oc3ccc4c(c3)CCCC4N)c12 (stereo not drawn) [Example 26],5 to 50 nM,5 to 50 nM
"Cc1c[nH]c2nccc(Oc3ccc(CN4CCOCC4)cc3)c12 [Example 27, 4-(4-((3-Methyl-1H-pyrrolo[2,3-b]pyridin-4-yl)oxy)benzyl)morpholine]",> 50 nM,> 50 nM
"Cc1c[nH]c2nccc(Oc3ccc(CNC4CCOCC4)cc3)c12 [Example 28, N-(4-((3-methyl-1H-pyrrolo[2,3-b]pyridin-4-yl)oxy)benzyl)tetrahydro-2H-pyran-4-amine]",5 to 50 nM,5 to 50 nM
"Cc1c[nH]c2nccc(Oc3ccc(CN(C)C)cc3)c12 [Example 29, N,N-dimethyl-1-(4-((3-methyl-1H-pyrrolo[2,3-b]pyridin-4-yl)oxy)phenyl)methanamine]",5 to 50 nM,5 to 50 nM
"Cc1c[nH]c2nccc(Oc3ccc(CNC4CCN(C)CC4)cc3)c12 [Example 30, 1-methyl-N-(4-((3-methyl-1H-pyrrolo[2,3-b]pyridin-4-yl)oxy)benzyl)piperidin-4-amine]",5 to 50 nM,5 to 50 nM

# More lines, now with the values ahead:
Ki (Rho kinase 1 (ROCK1)),Ki (Rho kinase 2 (ROCK2)),Compound
5 to 50 nM,5 to 50 nM,"Cc1c[nH]c2nccc(Oc3ccc(C4CCCN4)cc3)c12 (racemic) [Example 18, 3-methyl-4-(4-(pyrrolidin-2-yl)phenoxy)-1H-pyrrolo[2,3-b]pyridine]"
5 to 50 nM,< 5 nM,"Cc1c[nH]c2nccc(Oc3ccc(C4CCCN4)cc3)c12 (single isomer, unassigned) [Example 18A, 3-methyl-4-(4-(pyrrolidin-2-yl)phenoxy)-1H-pyrrolo[2,3-b]pyridine]"
–,5 to 50 nM,"Cc1c[nH]c2nccc(Oc3ccc(C4CCCN4)cc3)c12 (single isomer, unassigned) [Example 18B, 3-methyl-4-(4-(pyrrolidin-2-yl)phenoxy)-1H-pyrrolo[2,3-b]pyridine]"
< 5 nM,< 5 nM,"Cc1c[nH]c2nccc(Oc3ccc4c(c3)CNC4)c12 [Example 2, 4-(isoindolin-5-yloxy)-3-methyl-1H-pyrrolo[2,3-b]pyridine]"
< 5 nM,< 5 nM,"Cc1c[nH]c2nccc(Oc3ccc(CN)cc3F)c12 [Example 12, (3-fluoro-4-((3-methyl-1H-pyrrolo[2,3-b]pyridin-4-yl)oxy)phenyl)methanamine]"
5 to 50 nM,< 5 nM,"Cc1c[nH]c2nccc(Oc3ccc4c(c3)CNCCC4)c12 [Example 16, 8-((3-methyl-1H-pyrrolo[2,3-b]pyridin-4-yl)oxy)-2,3,4,5-tetrahydro-1H-benzo[c]azepine]"
5 to 50 nM,< 5 nM,"Cc1c[nH]c2nccc(Oc3ccc(C4CNC4)cc3)c12 [Example 17, 4-(4-(azetidin-3-yl)phenoxy)-3-methyl-1H-pyrrolo[2,3-b]pyridine]"
< 5 nM,< 5 nM,"Cc1c[nH]c2nccc(Oc3ccc(CCN)cc3)c12 [Example 19, 2-(4-((3-methyl-1H-pyrrolo[2,3-b]pyridin-4-yl)oxy)phenyl)ethanamine]"
< 5 nM,< 5 nM,"Cc1c[nH]c2nccc(Oc3ccc(C4CCNC4)cc3)c12 (stereo not drawn) [Example 20, 3-methyl-4-(4-(pyrrolidin-3-yl)phenoxy)-1H-pyrrolo[2,3-b]pyridine]"
5 to 50 nM,< 5 nM,"Cc1c[nH]c2nccc(Oc3ccc(CN)cc3)c12 [Example 21, (4-((3-methyl-1H-pyrrolo[2,3-b]pyridin-4-yl)oxy)phenyl)methanamine]"
< 5 nM,< 5 nM,"Cc1c[nH]c2nccc(Oc3ccc(C(C)N)cc3F)c12 (stereo not drawn) [Example 23, 1-(3-fluoro-4-((3-methyl-1H-pyrrolo[2,3-b]pyridin-4-yl)oxy)phenyl)ethanamine]"
5 to 50 nM,< 5 nM,"Cc1c[nH]c2nccc(Oc3ccc(C(C)N)cc3)c12 (stereo not drawn) [Example 24, 1-(4-((3-methyl-1H-pyrrolo[2,3-b]pyridin-4-yl)oxy)phenyl)ethanamine]"
5 to 50 nM,< 5 nM,"Cc1c[nH]c2nccc(Oc3ccc(C(C)(C)N)cc3)c12 [Example 25, 2-(4-((3-methyl-1H-pyrrolo[2,3-b]pyridin-4-yl)oxy)phenyl)propan-2-amine]"

# — patent publication US11332468B2, “Azaindole derivatives as Rho-kinase inhibitors” (CHIESI FARMACEUTICI S.p.A., priority 2017, dated 2022)
